In brackets after ≈: the same amount, converted by molar mass. Where two headings read alike, the source gives them in different places.
Experiments:
M. arupense = assay: MIC (CLSI broth dilution), slow-growing NTM isolates; format: cell-based; conditions: isolate 11, Other; read-out: MIC
M. avium = assay: as above; format: cell-based; conditions: Mycobacterium avium, read-out: MIC
M. chelonae = assay: MIC (CLSI broth dilution), RGM isolates; format: cell-based; conditions: Mycobacteroides chelonae, read-out: MIC
[1] = tested on: rapid-growing mycobacteria (RGM) isolates; assay: MIC (CLSI broth dilution), all RGM isolates; format: cell-based, nontuberculous mycobacteria; conditions: all 50 RGM isolates; for MIC50: read-out: MIC50; for MIC90: read-out: MIC90
M. intracellulare = assay: MIC (CLSI broth dilution), slow-growing NTM isolates; format: cell-based; conditions: Mycobacterium intracellulare, read-out: MIC
M. fortuitum group = assay: MIC (CLSI broth dilution), RGM isolates; format: cell-based; conditions: Mycolicibacterium fortuitum, read-out: MIC
M. simiae = assay: MIC (CLSI broth dilution), slow-growing NTM isolates; format: cell-based; conditions: read-out: MIC
M. smegmatis group = assay: MIC (CLSI broth dilution), RGM isolates; format: cell-based; conditions: Mycolicibacterium smegmatis, read-out: MIC
M. abscessus complex = assay: MIC (CLSI broth dilution), RGM isolates; format: cell-based; conditions: Mycobacteroides abscessus, read-out: MIC
M. mucogenium group = assay: MIC (CLSI broth dilution), RGM isolates; format: cell-based; conditions: read-out: MIC
M. chimaera = assay: MIC (CLSI broth dilution), slow-growing NTM isolates; format: cell-based; conditions: read-out: MIC
M. immunogenum group = assay: MIC (CLSI broth dilution), RGM isolates; format: cell-based; conditions: M. immunogenum, read-out: MIC
[2] = tested on: slow-growing NTM isolates; assay: MIC (CLSI broth dilution), all slow-growing NTM isolates; format: cell-based, nontuberculous mycobacteria; conditions: all slow-growing NTM isolates
[3] = isolate 23, M. fortuitum group, M. fortuitum
[4] = isolate 24, M. fortuitum group, M. fortuitum
[5] = isolate 25, M. fortuitum group, M. fortuitum
[6] = isolate 26, M. fortuitum group, M. porcinum
[7] = isolate 27, M. fortuitum group, M. porcinum
[8] = isolate 28, M. fortuitum group, M. porcinum/M. boenickei
[9] = isolate 29, M. fortuitum group, M. porcinum/M. boenickei
[10] = isolate 30, M. fortuitum group, M. porcinum/M. boenickei
[11] = isolate 31, M. fortuitum group, M. senegalense
[12] = isolate 32, M. fortuitum group, M. senegalense
[13] = isolate 33, M. fortuitum group, M. senegalense
[14] = isolate 34, M. fortuitum group, M. senegalense
[15] = isolate 49, M. smegmatis group, M. goodii
[16] = isolate 50, M. smegmatis group, M. wolinskyi
[17] = isolate 1, M. abscessus complex, erm gene type MAB30
[18] = isolate 2, M. abscessus complex, erm gene type MAB30
[19] = isolate 3, M. abscessus complex, erm gene type MAB30
[20] = isolate 4, M. abscessus complex, erm gene type massiliense
[21] = isolate 5, M. abscessus complex, erm gene type massiliense/subsp. abs hybrid
[22] = isolate 6, M. abscessus complex, erm gene type Type 1 abscessus
[23] = isolate 7, M. abscessus complex, erm gene type Type 1 abscessus
[24] = isolate 8, M. abscessus complex, erm gene type Type 1 abscessus
[25] = isolate 9, M. abscessus complex, erm gene type Type 1 abscessus
[26] = isolate 10, M. abscessus complex, erm gene type Type 1 abscessus
[27] = isolate 11, M. abscessus complex, erm gene type Type 6 abscessus
[28] = isolate 12, M. abscessus complex, erm gene type Type 6 abscessus
[29] = isolate 13, M. abscessus complex, erm gene type Type 6 abscessus
[30] = isolate 14, M. abscessus complex, erm gene type Type 6 abscessus
[31] = isolate 15, M. abscessus complex, erm gene type Type 7 abscessus
[32] = isolate 16, M. abscessus complex, erm gene type Type 7 abscessus
[33] = isolate 17, M. abscessus complex, erm gene type Type 8 abscessus
[34] = isolate 39, M. mucogenicum group, M. mucogenicum
[35] = isolate 40, M. mucogenicum group, M. mucogenicum
[36] = isolate 41, M. mucogenicum group, M. mucogenicum
[37] = isolate 42, M. mucogenicum group, M. mucogenicum
[38] = isolate 43, M. mucogenicum group, M. phocaicum
[39] = isolate 44, M. mucogenicum group, M. phocaicum
[40] = isolate 45, M. mucogenicum group, M. phocaicum
[41] = isolate 46, M. mucogenicum group, M. phocaicum
[42] = isolate 47, M. mucogenicum group, M. phocaicum
[43] = isolate 48, M. mucogenicum group, M. phocaicum
[44] = isolate 35, M. immunogenum group
[45] = isolate 36, M. immunogenum group
[46] = isolate 37, M. immunogenum group
[47] = isolate 38, M. immunogenum group

CN(C)c1cc(CNCC(C)(C)C)c(O)c2c1C[C@H]1C[C@H]3[C@H](N(C)C)C(O)=C(C(N)=O)C(=O)[C@@]3(O)C(O)=C1C2=O [OMC]
MIC (M. arupense): > 16 µg/mL
MIC (M. avium; isolate 1, MAC): > 16 µg/mL
MIC (M. avium; isolate 2, MAC): > 16 µg/mL
MIC (M. avium; isolate 3, MAC): > 16 µg/mL
MIC (M. chelonae; isolate 18, M. chelonae): 0.12 µg/mL (≈ 0.216 µM)
MIC (M. chelonae; isolate 19, M. chelonae): 0.25 µg/mL (≈ 0.449 µM)
MIC (M. chelonae; isolate 20, M. chelonae): 0.12 µg/mL (≈ 0.216 µM)
MIC (M. chelonae; isolate 21, M. chelonae): 0.12 µg/mL (≈ 0.216 µM)
MIC (M. chelonae; isolate 22, M. chelonae): 0.25 µg/mL (≈ 0.449 µM)
MIC50 [1]: 0.25 µg/mL (≈ 0.449 µM)
MIC90 [1]: 0.5 µg/mL (≈ 0.898 µM)
MIC (M. intracellulare; isolate 6, MAC): > 16 µg/mL
MIC (M. intracellulare; isolate 7, MAC): > 16 µg/mL
MIC (M. intracellulare; isolate 8, MAC): > 16 µg/mL
MIC (M. intracellulare; isolate 9, MAC): > 16 µg/mL
MIC (M. intracellulare; isolate 10, MAC): > 16 µg/mL
MIC (M. fortuitum group; [3]): 0.12 µg/mL (≈ 0.216 µM)
MIC (M. fortuitum group; [4]): 0.12 µg/mL (≈ 0.216 µM)
MIC (M. fortuitum group; [5]): 0.12 µg/mL (≈ 0.216 µM)
MIC (M. fortuitum group; [6]): 0.06 µg/mL (≈ 0.108 µM)
MIC (M. fortuitum group; [7]): 0.12 µg/mL (≈ 0.216 µM)
MIC (M. fortuitum group; [8]): 0.25 µg/mL (≈ 0.449 µM)
MIC (M. fortuitum group; [9]): 0.25 µg/mL (≈ 0.449 µM)
MIC (M. fortuitum group; [10]): 0.12 µg/mL (≈ 0.216 µM)
MIC (M. fortuitum group; [11]): 0.25 µg/mL (≈ 0.449 µM)
MIC (M. fortuitum group; [12]): 0.12 µg/mL (≈ 0.216 µM)
MIC (M. fortuitum group; [13]): 0.12 µg/mL (≈ 0.216 µM)
MIC (M. fortuitum group; [14]): 0.12 µg/mL (≈ 0.216 µM)
MIC (M. simiae; isolate 13, Other): > 16 µg/mL
MIC (M. simiae; isolate 14, Other): > 16 µg/mL
MIC (M. simiae; isolate 15, Other): > 16 µg/mL
MIC (M. smegmatis group; [15]): 0.06 µg/mL (≈ 0.108 µM)
MIC (M. smegmatis group; [16]): 0.5 µg/mL (≈ 0.898 µM)
MIC (M. abscessus complex; [17]): 0.25 µg/mL (≈ 0.449 µM)
MIC (M. abscessus complex; [18]): 0.25 µg/mL (≈ 0.449 µM)
MIC (M. abscessus complex; [19]): 0.25 µg/mL (≈ 0.449 µM)
MIC (M. abscessus complex; [20]): 0.12 µg/mL (≈ 0.216 µM)
MIC (M. abscessus complex; [21]): 0.25 µg/mL (≈ 0.449 µM)
MIC (M. abscessus complex; [22]): 0.12 µg/mL (≈ 0.216 µM)
MIC (M. abscessus complex; [23]): 0.12 µg/mL (≈ 0.216 µM)
MIC (M. abscessus complex; [24]): 0.12 µg/mL (≈ 0.216 µM)
MIC (M. abscessus complex; [25]): 0.12 µg/mL (≈ 0.216 µM)
MIC (M. abscessus complex; [26]): 0.12 µg/mL (≈ 0.216 µM)
MIC (M. abscessus complex; [27]): 0.12 µg/mL (≈ 0.216 µM)
MIC (M. abscessus complex; [28]): 0.12 µg/mL (≈ 0.216 µM)
MIC (M. abscessus complex; [29]): 0.25 µg/mL (≈ 0.449 µM)
MIC (M. abscessus complex; [30]): 0.12 µg/mL (≈ 0.216 µM)
MIC (M. abscessus complex; [31]): 0.12 µg/mL (≈ 0.216 µM)
MIC (M. abscessus complex; [32]): 0.25 µg/mL (≈ 0.449 µM)
MIC (M. abscessus complex; [33]): 0.06 µg/mL (≈ 0.108 µM)
MIC (M. mucogenium group; [34]): 0.25 µg/mL (≈ 0.449 µM)
MIC (M. mucogenium group; [35]): 0.25 µg/mL (≈ 0.449 µM)
MIC (M. mucogenium group; [36]): 1 µg/mL (≈ 1.8 µM)
MIC (M. mucogenium group; [37]): 0.5 µg/mL (≈ 0.898 µM)
MIC (M. mucogenium group; [38]): 1 µg/mL (≈ 1.8 µM)
MIC (M. mucogenium group; [39]): 0.5 µg/mL (≈ 0.898 µM)
MIC (M. mucogenium group; [40]): 0.5 µg/mL (≈ 0.898 µM)
MIC (M. mucogenium group; [41]): 1 µg/mL (≈ 1.8 µM)
MIC (M. mucogenium group; [42]): 1 µg/mL (≈ 1.8 µM)
MIC (M. mucogenium group; [43]): 0.25 µg/mL (≈ 0.449 µM)
MIC (M. chimaera; isolate 4, MAC): > 16 µg/mL
MIC (M. chimaera; isolate 5, MAC): > 16 µg/mL
MIC (M. immunogenum group; [44]): 0.5 µg/mL (≈ 0.898 µM)
MIC (M. immunogenum group; [45]): 0.25 µg/mL (≈ 0.449 µM)
MIC (M. immunogenum group; [46]): 0.5 µg/mL (≈ 0.898 µM)
MIC (M. immunogenum group; [47]): 0.5 µg/mL (≈ 0.898 µM)
MIC50 ([2]; read-out: MIC50): > 16 µg/mL
MIC90 ([2]; read-out: MIC90): > 16 µg/mL

CN(C)c1ccc(O)c2c1C[C@H]1C[C@H]3[C@H](N(C)C)C(O)=C(C(N)=O)C(=O)[C@@]3(O)C(O)=C1C2=O [minocycline]
MIC (M. arupense): 8 µg/mL (≈ 17.5 µM)
MIC (M. chelonae; isolate 18, M. chelonae): > 8 µg/mL
MIC (M. chelonae; isolate 19, M. chelonae): > 8 µg/mL
MIC (M. chelonae; isolate 20, M. chelonae): > 8 µg/mL
MIC (M. chelonae; isolate 21, M. chelonae): > 8 µg/mL
MIC (M. chelonae; isolate 22, M. chelonae): > 8 µg/mL
MIC50 [1]: 8 µg/mL (≈ 17.5 µM)
MIC90 [1]: > 8 µg/mL
MIC (M. fortuitum group; [3]): ≤ 0.5 µg/mL
MIC (M. fortuitum group; [4]): ≤ 0.5 µg/mL
MIC (M. fortuitum group; [5]): > 8 µg/mL
MIC (M. fortuitum group; [6]): 1 µg/mL (≈ 2.19 µM)
MIC (M. fortuitum group; [7]): 4 µg/mL (≈ 8.74 µM)
MIC (M. fortuitum group; [8]): 1 µg/mL (≈ 2.19 µM)
MIC (M. fortuitum group; [9]): 4 µg/mL (≈ 8.74 µM)
MIC (M. fortuitum group; [10]): 8 µg/mL (≈ 17.5 µM)
MIC (M. fortuitum group; [11]): ≤ 0.5 µg/mL
MIC (M. fortuitum group; [12]): ≤ 0.5 µg/mL
MIC (M. fortuitum group; [13]): ≤ 0.5 µg/mL
MIC (M. fortuitum group; [14]): ≤ 0.5 µg/mL
MIC (M. simiae; isolate 13, Other): 4 µg/mL (≈ 8.74 µM)
MIC (M. simiae; isolate 14, Other): > 8 µg/mL
MIC (M. simiae; isolate 15, Other): > 8 µg/mL
MIC (M. smegmatis group; [15]): ≤ 0.5 µg/mL
MIC (M. smegmatis group; [16]): ≤ 0.5 µg/mL
MIC (M. abscessus complex; [17]): > 8 µg/mL
MIC (M. abscessus complex; [18]): 8 µg/mL (≈ 17.5 µM)
MIC (M. abscessus complex; [19]): > 8 µg/mL
MIC (M. abscessus complex; [20]): 4 µg/mL (≈ 8.74 µM)
MIC (M. abscessus complex; [21]): > 8 µg/mL
MIC (M. abscessus complex; [22]): > 8 µg/mL
MIC (M. abscessus complex; [23]): 8 µg/mL (≈ 17.5 µM)
MIC (M. abscessus complex; [24]): > 8 µg/mL
MIC (M. abscessus complex; [25]): > 8 µg/mL
MIC (M. abscessus complex; [26]): > 8 µg/mL
MIC (M. abscessus complex; [27]): 4 µg/mL (≈ 8.74 µM)
MIC (M. abscessus complex; [28]): > 8 µg/mL
MIC (M. abscessus complex; [29]): > 8 µg/mL
MIC (M. abscessus complex; [30]): 4 µg/mL (≈ 8.74 µM)
MIC (M. abscessus complex; [31]): 8 µg/mL (≈ 17.5 µM)
MIC (M. abscessus complex; [32]): > 8 µg/mL
MIC (M. abscessus complex; [33]): 4 µg/mL (≈ 8.74 µM)
MIC (M. mucogenium group; [34]): ≤ 0.5 µg/mL
MIC (M. mucogenium group; [35]): ≤ 1 µg/mL
MIC (M. mucogenium group; [36]): ≤ 0.5 µg/mL
MIC (M. mucogenium group; [37]): ≤ 0.5 µg/mL
MIC (M. mucogenium group; [38]): ≤ 0.5 µg/mL
MIC (M. mucogenium group; [39]): > 8 µg/mL
MIC (M. mucogenium group; [40]): > 8 µg/mL
MIC (M. mucogenium group; [41]): 8 µg/mL (≈ 17.5 µM)
MIC (M. mucogenium group; [42]): ≤ 0.5 µg/mL
MIC (M. mucogenium group; [43]): 2 µg/mL (≈ 4.37 µM)
MIC (M. immunogenum group; [44]): > 8 µg/mL
MIC (M. immunogenum group; [45]): ≤ 0.5 µg/mL
MIC (M. immunogenum group; [46]): > 8 µg/mL
MIC (M. immunogenum group; [47]): > 8 µg/mL

Reference: patent US20250332178A1, “METHODS OF TREATING MYCOBACTERIAL INFECTIONS USING TETRACYCLINE COMPOUNDS” (priority 2018, published 2025)
